{"source": "patent US20090317842A1", "about": "“Methods and Tools for The Therapy of Neurodegenerative Pathologies” (EXONHIT THERAPEUTICS SA, priority 2006, published 2009)", "key": {"cortical neurons": {"tested_on": "cortical neurons", "experiment": "Neuroprotection against Aβ25-35 amyloid peptide toxicity in neuronal cultures (MTT test)", "assay_type": "cell-based, Wistar rat", "conditions": "Aβ25-35 33.5 μM", "procedure": "Aβ25-35 peptide contains the neurotoxic fragment of the amyloid peptide and is a tool classically used to study the neuroprotective effects of compounds. At the beginning of each experiment, the neuronal cultures aged 7-10 days are changed with fresh culture medium and treated with the etazolate inhibitor compound, six hours before the addition of Aβ25-35 amyloid peptide at a concentration of 33.5 μM In a classical and reproducible manner, this concentration generates 30% to 40% toxicity in neuronal cultures. Several experiments are undertaken to characterize the neuroprotective effect of etazolate. […] In order to determine whether it is the inhibition of sAPPalpha or its production that provides the neuroprotective effect of etazolate against amyloid peptide, a neutralizing anti-sAPPα antibody (3E9 antibody) and alpha secretase inhibitors are respectively used. For the neutralization of sAPPα, 3E9 antibody (5 μg/ml) is added to the cortical cells at the same time as the etazolate. Two alpha secretase inhibitors, the compound Furin Inhibitor […], Sohn J H, Lee […], Mook-Jung I. Furin is an endogenous regulator of alpha-secretase associated APP processing. Biochem Biophys Res Commun. 2006 Oct. 20; 349(2):654-9.) and TAPI (Slack […]. […] Biochem J. 2001 Aug. 1; 357(Pt 3):787-94) are used in pretreatment one hour before the addition of the etazolate. All the treatments are effected at least twice and in at least two different cultures. After an incubation of 48 hours, the toxicity is measured by an MTT test. The results, normalized to the untreated mean, are statistically analyzed by the Wilcoxon test. The significant value is determined at p less than or equal to 0.05. The toxicity is measured by using the MTT test. After incubation with the compounds, MTT is added at a final concentration of 0.5 mg/mL by wells. The plates are then incubated for 30 minutes at 37° C. at night. The medium is drawn off and the crystals are resuspended in 500 μL of DMSO (dimethylsulfoxide). The absorbance at 550 nm is read and the viability percentage is calculated."}, "sAPPalpha [1]": {"tested_on": "sAPPalpha", "experiment": "sAPPalpha production in HEK293 cells over-expressing human APP (ELISA and Western blot)", "assay_type": "cell-based", "conditions": "HEK293 cells stably over-expressing human APP; variable concentrations; 24 hours; FIG. 5", "procedure": "HEK293 cells transfected in a stable manner over-expressing human APP were kept in Modified Eagle medium containing Earle salt and supplemented by 10% fetal calf serum (FCS), 2 mM L-glutamine (Sigma, Lyon, France), 1× Nonessential Amino Acids and antibiotics. The cells were treated for 48 hours after spreading variable concentrations of the molecules indicated on 10-cm plates, or with DMSO as a carrier, for 24 hours. The sAPPalpha had been measured by ELISA and Western blot by means of commercially available antibodies."}, "sAPPalpha [2]": {"tested_on": "sAPPalpha", "experiment": "sAPPalpha production by cortical neurons (Western blot)", "assay_type": "cell-based, Wistar rat", "conditions": "0.2 and 2 μM for 24 h; Western blot densitometry; versus non-treated cultures; FIG. 6", "procedure": "The production of sAPPalpha was measured in cortical neurons isolated from 17-day-old Wistar rat embryos. The cells are obtained from cortical structures that are dissected into a solution containing 0.25% trypsin. The dissociated cells are seeded at a density of 500,000 per cm^2 in a Neurobasal medium containing additives (1×B27, 2 mM L-glutamine, 0.6% glucose, antibiotics and antimycotics, as well as 2% horse serum) in culture dishes coated with 6 μg/mL, of polyornithine. The cells are kept at 37° C. and 5% CO2. 24 hours after seeding, the cells are treated with 5 μM AraC (5 cytosine arabinofuranoside) as an antimitotic agent. After 4 days in vitro, half the medium is exchanged for medium without horse serum and the culture is kept for maturation in this medium for 7 to 10 days. The sAPPalpha was measured by Western blot by means of antibodies available commercially after one change of medium and accumulation in fresh medium for 24 hours. Quantification was done by densitometric analyses of scanned autoradiographic images. […] The results presented are the mean±SEM of three independent experiments performed in duplicate and are expressed the form of percentage of the control (non-treated cultures)."}, "sAPPalpha [3]": {"tested_on": "sAPPalpha", "experiment": "sAPPalpha production in vivo in guinea pig brain (ELISA)", "conditions": "10 mg/kg per os once a day for 15 days; guinea pig cortices; versus excipient; p<1E-4; FIG. 7", "method": "The production of sAPPalpha was studied in vivo in the guinea pig, a physiological model for APP processing in the brain. The etazolate or the excipient (physiological saline solution) was administered to male Hartley albino guinea pigs, weighing 250-270 g at the beginning of the experiment, once a day for 15 consecutive days, per os in a dose of 10 mg/kg. One h after the last administration, the guinea pigs were sacrificed and the brains immediately extracted, frozen in nitrogen and stored at −80° C. The cortices were homogenized at 4° C. in a pH 7.5 20 mM Tris base solution containing 0.2% Triton X-100, 50 μg/mL, gentamicin and a protease inhibitor cocktail. The soluble sAPPalpha was measured by an ELISA test and the results normalized with regard to the quantity of proteins present in the extracts."}}, "data": [{"molecule": "TAPI [reference compound]", "values": [{"measurement": "effect on the neuroprotection induced by etazolate", "setting": "cortical neurons; agent added before or with etazolate, cortical neurons, FIGS. 8-10", "result": "inhibited"}]}, {"molecule": "CCOC(=O)c1cnc2c(cnn2CC)c1NN=C(C)C", "note": "[etazolate]", "values": [{"measurement": "sAPPalpha secretion", "setting": "sAPPalpha [1]", "result": "induces sAPPalpha secretion"}, {"measurement": "salting out of sAPPalpha from cortical neurons", "setting": "sAPPalpha [2]", "result": "stimulates the salting out of sAPPalpha"}, {"measurement": "quantity of sAPPalpha measured in the brains", "setting": "sAPPalpha [3]", "result": "increase by a factor of three"}, {"measurement": "cellular viability", "setting": "cortical neurons; 0.2 μM etazolate, 48 hours, FIG. 8", "result": 90, "unit": "%"}, {"measurement": "protector effect on neuronal death induced by Aβ25-35", "setting": "cortical neurons; co-treatment of neurons, 48 hours, FIG. 8", "result": "dose-dependent protector effect"}]}]}
